{"source": "patent US10646591B2", "about": "“Imaging agents for imaging protease activity and uses thereof” (The United States of America, as represented by the …, priority 2011, dated 2020)", "key": {"U87MG tumor": {"system": "U87MG tumor", "test": "Ex vivo biodistribution in U87MG tumor-bearing mice", "conditions": "4 hour time point", "protocol": "Ex vivo imaging of excised tumor and organs further confirmed the targeting specificity and activation of the probes (data not shown). At 4 hours post-injection, the mice were sacrificed and major organ tissues and tumors were harvested, and placed on black paper for ex vivo imaging. For quantitative comparison, ROIs were drawn over tumors and the other organs, and the average signal for each area was measured. The results were presented as the average scaled signal from the organs and tumors. Values were expressed as mean±s.d. for a group of three animals.\nT/N ratios are illustrated in FIG. 12A. […] After whole-mouse imaging at a 4 hour time point, tumors and organs were carefully removed and the biodistribution of compounds 4 and 6 was evaluated (FIG. 12B)."}, "[1]": {"system": "MMP- and αvβ3 integrin receptor-positive U87MG tumor", "test": "In vivo optical imaging of U87MG tumor-bearing mice", "conditions": "for fluorescent signals in the tumor over time: 0.5 nmol injected", "protocol": "Female athymic nude mice were supplied from Harlan at 4 to 5 weeks of age. The U87MG tumor model was generated by subcutaneous injection of 5×10^6 cells in Matrigel (BD Biosciences, Sparks, Md.) into the right front flank of female athymic nude mice at a volume of about 80 μl. The mice were then used for optical studies when the tumor volume reached about 300 mm^3. All animal studies were conducted in accordance with the principles and procedures outlined in the Guide for the Care and Use of Laboratory Animals and were approved by the Institutional Animal Care and Use Committee of Clinical Center, NIH.\nOptical imaging acquirement and analysis were done using a Maestro 2.10 in vivo imaging system (CRI). […] The molar concentration of each samples were calculated by the sample weight. At 1, 2, 3, and 4 hours post-injection, the mice were subjected to optical imaging using appropriate filters for Cy5.5 and CW800. For the inhibition experiment, MMP inhibitor was intratumorally injected into tumor bearing mice 30 minutes before the imaging agent injection. After image acquisition, spectral unmixing yielded the pseudocolor images of the pure spectrum of respective dyes. Images were normalized and analyzed using Maestro software. For quantitative comparison, regions of interest (ROI) were drawn over tumors and muscle, and the average signal ([…]) for each area was measured. Values were expressed as mean±s.d. for a group of three animals.\nIt should be noted that only a limited dose of dye-labeled peptide probe like compounds 5 and 7 can be injected for whole body imaging, because of its high fluorescent background from the dye. In contrast, since fluorogenic probes are strongly quenched and a majority of the probe is activated at the target site, higher doses of the imaging agents of the present invention can be injected to enhance the ratio of region-of-interest (ROI) signal of tumor to normal tissue, muscle (T/N), at very early times. After injection, in vivo optical imaging was performed for 4 hours using a small animal imaging system (Maestro 2) equipped with appropriate filters for Cy5.5 and CW800."}, "U87MG cells": {"system": "U87MG cells", "test": "Fluorescent microscopic study of receptor specificity in fixed U87MG cells", "format": "cell-based, human", "protocol": "The U87MG cell is known to have high αvβ3 integrin density on the cell surface. […] Next, receptor specificity of the probes in cell culture was verified by fluorescent microscopic studies. […] (data not shown)."}, "MMP-positive SCC-7 tumor": {"system": "MMP-positive SCC-7 tumor", "test": "In vivo NIR fluorescence imaging of SCC-7 tumor-bearing mice", "conditions": "intravenous, imaging for 24 hours, compared to other MMP-Pns and MMPSense 680", "protocol": "Squamous cell carcinoma SCC-7 were cultured in RPMI 1640 medium containing 10% (v/v) fetal bovine serum (Invitrogen, Carlsbad, Calif.) supplemented with penicillin (100 μg/ml) and streptomycin (100 μg/ml) at 37° C. with 5% CO2. The SCC-7 tumor model was developed by subcutaneous injection of 1×10^6 cells into the right front flank of female athymic nude mice (Harlan Laboratories, Indianapolis, Ind.). The mice were used for optical studies when the tumor volume reached about 300 mm^3. […]\nOptical image acquisition and analysis were done using a Maestro 2 imaging system (Cambridge Research & Instrumentation, Inc. (CRI), Woburn, Mass.). […] Images were normalized and analyzed by using Maestro software. For quantitative comparison, the regions of interest (ROI) were drawn over tumor (T) and normal tissue (N, muscle), and the average signal (×10^6 photons×cm^−2×s^−1) for each area was measured. […]\nThe MMP-Pns imaging agents used in Example 2, were then used to create a video image of the activity of MMPs in vivo. […] The MMP-P12 generated strong NIR fluorescence signals as early as 20 to 30 minutes after the probe injection and enabled clear visualization of MMPs in the tumor region thereafter."}}}
{"compound": "CCN(CC)c1ccc2nc3ccc(/N=N/c4ccc(N(C)CCCC(=O)NCCCC[C@H](NC(=O)CNC(=O)[C@H](CCCNC(=N)N)NC(=O)[C@@H](NC(=O)CNC(=O)[C@H](CC(C)C)NC(=O)[C@@H]5CCCN5C(=O)CNC(=O)CCCCCN5/C(=C/C=C/C=C/C6=[N+](CC)c7ccc8c(S(=O)(=O)O)cc(S(=O)(=O)[O-])cc8c7C6(C)C)C(C)(C)c6c5ccc5c(S(=O)(=O)O)cc(S(=O)(=O)[O-])cc65)C(C)C)C(=O)NCC(=O)NCC(=O)NCCCC[C@@H]5NC(=O)[C@@H](Cc6ccc(O)cc6)NC(=O)[C@H](CC(=O)O)NC(=O)CNC(=O)[C@H](CCCNC(=N)N)NC5=O)cc4)cc3[n+](-c3ccccc3)c2c1", "note": "[compound 4]", "values": [{"measurement": "ex vivo biodistribution (site of activation)", "setting": "U87MG tumor", "value": "predominantly activated in the tumors"}, {"measurement": "NIR fluorescence signal from the tumor with MMP inhibitor", "setting": "[1]; MMP inhibitor intratumorally 30 minutes before probe", "value": "significantly reduced"}, {"measurement": "tumor uptake with excess unlabeled c(RGDyK)", "setting": "[1]; c(RGDyK) 200 nmol, 30 minutes post-injection", "value": "effectively blocked"}, {"measurement": "brightness of NIR fluorescent images", "setting": "[1]; from 1 hour post-injection", "value": "brighter NIR fluorescent images compared to compound 6"}, {"measurement": "visualization of MMP expression in MMP positive tumor", "setting": "[1]; intravenous, imaging for 4 hours", "value": "enabled visualization of MMP expression"}]}
{"compound": "CC[N+]1=C(/C=C/C=C/C=C2/N(CCCCCC(=O)NCC(=O)N3CCC[C@H]3C(=O)N[C@@H](CC(C)C)C(=O)NCC(=O)N[C@H](C(=O)N[C@@H](CCCNC(=N)N)C(=O)NCC(=O)N[C@@H](CCCCN)C(=O)NCC(=O)NCC(=O)NCCCC[C@@H]3NC(=O)[C@@H](Cc4ccc(O)cc4)NC(=O)[C@H](CC(=O)O)NC(=O)CNC(=O)[C@H](CCCNC(=N)N)NC3=O)C(C)C)c3ccc4c(S(=O)(=O)O)cc(S(=O)(=O)O)cc4c3C2(C)C)C(C)(C)c2c1ccc1c(S(=O)(=O)O)cc(S(=O)(=O)O)cc21", "note": "[compound 5]", "values": [{"measurement": "fluorescent signals on the cell membranes", "setting": "U87MG cells; 30 minutes of incubation at 37° C.", "value": "Strong positive fluorescent signals"}, {"measurement": "binding with receptor blocking by excess c(RGDyK)", "setting": "U87MG cells; blocking dose of c(RGDyK) 10 μM", "value": "significantly decreased"}, {"measurement": "fluorescent signals in the tumor over time", "setting": "[1]", "value": "gradually increased"}]}
{"compound": "CC1(C)C(/C=C/C2=C(Oc3ccc(S(=O)(=O)O)cc3)C(=C/C=C3/N(CCCCS(=O)(=O)O)c4ccc(S(=O)(=O)O)cc4C3(C)C)/CCC2)=[N+](CCCCCC(=O)NCCCC[C@@H]2NC(=O)[C@@H](Cc3ccc(O)cc3)NC(=O)[C@H](CC(=O)O)NC(=O)CNC(=O)[C@H](CCCNC(=N)N)NC2=O)c2ccc(S(=O)(=O)O)cc21", "note": "[compound 7]", "values": [{"measurement": "fluorescent signals in the tumor over time", "setting": "[1]", "value": "gradually increased"}]}
{"compound": "MMP-P4: Cy5.5-GPLGVRGK(BHQ3)GG-R, R = -NH(CH2CH2O)4H", "values": [{"measurement": "onset of activation in vivo, NIR fluorescence in tumor region", "setting": "MMP-positive SCC-7 tumor", "value": "early onset of activation in vivo"}]}
